Measurements reported in PubChem BioAssay (NCI).
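Each compound was tested at five concentrations against cells in 96-well plates for 48 hours. Abbreviation: GI50, concentration required for 50% inhibition of growth. TGI is the concentration that stops growth completely.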

Tests used:
Assay in all cases: NCI anticancer screen, dose series, 48 h
[1] = tested on: OVCAR-3 ovarian
[2] = tested on: NCI-H226 lung
[3] = tested on: MCF7 breast
[4] = tested on: UO-31 renal
[5] = tested on: 786-0 renal
[6] = tested on: OVCAR-8 ovarian
[7] = tested on: SK-MEL-5 melanoma
[8] = tested on: MALME-3M melanoma
[9] = tested on: NCI/ADR-RES ovarian
[10] = tested on: IGROV1 ovarian
[11] = tested on: HT29 colon
[12] = tested on: CCRF-CEM leukemia
[13] = tested on: TK-10 renal
[14] = tested on: SF-539 CNS
[15] = tested on: HS 578T breast
[16] = tested on: DU-145 prostate
[17] = tested on: NCI-H460 lung
[18] = tested on: HCC-2998 colon
[19] = tested on: SF-268 CNS
[20] = tested on: SNB-19 CNS
[21] = tested on: HL-60(TB) leukemia
[22] = tested on: SR leukemia
[23] = tested on: PC-3 prostate
[24] = tested on: HCT-15 colon
[25] = tested on: UACC-62 melanoma
[26] = tested on: A498 renal
[27] = tested on: M14 melanoma
[28] = tested on: HOP-62 NSCLC
[29] = tested on: SN12C renal
[30] = tested on: A549 NSCLC
[31] = tested on: NCI-H522 lung
[32] = tested on: KM12 colon
[33] = tested on: BT-549 breast
[34] = tested on: MDA-MB-435
[35] = tested on: NCI-H23 lung
[36] = tested on: SNB-75 CNS
[37] = tested on: K-562 leukemia
[38] = tested on: U251 CNS
[39] = tested on: HCT-116 colon
[40] = tested on: SK-MEL-28 melanoma
[41] = tested on: CAKI-1 renal
[42] = tested on: ACHN renal
[43] = tested on: OVCAR-4 ovarian
[44] = tested on: MOLT-4 leukemia
[45] = tested on: UACC-257 melanoma
[46] = tested on: OVCAR-5 ovarian
[47] = tested on: RPMI-8226 leukemia
[48] = tested on: SF-295 CNS
[49] = tested on: MDA-MB-231 breast
[50] = tested on: RXF 393 renal
[51] = tested on: COLO 205 colon
[52] = tested on: SW-620 colon
[53] = tested on: SK-OV-3 ovarian
[54] = tested on: T-47D breast

Q: Which GI50 [1] does the source give for `COc1ccc(CCc2nc3cc(-c4c(C)noc4C)ccc3n2CCN2CCOCC2)cc1` here?
A: 20.3 µM

Q: And the TGI [1]?
A: 59.8 µM

Q: And the GI50 [2]?
A: 31.1 µM

Q: And the TGI [2]?
A: > 100 µM

Q: And the GI50 [3]?
A: 4.32 µM

Q: And the TGI [3]?
A: > 100 µM

Q: What about the GI50 [4] of the same molecule?
A: 2.49 µM

Q: What about the TGI [4] of the same molecule?
A: > 100 µM

Q: What about the GI50 [5] of the same molecule?
A: 24.4 µM

Q: And the TGI [5]?
A: > 100 µM

Q: What about the GI50 [6] of the same molecule?
A: 35.9 µM

Q: What about the TGI [6] of the same molecule?
A: > 100 µM

Q: What about the GI50 [7] of the same molecule?
A: 13.4 µM

Q: What about the TGI [7] of the same molecule?
A: 43.8 µM

Q: What about the GI50 [8] of the same molecule?
A: 6.64 µM

Q: And the TGI [8]?
A: > 100 µM

Q: And the GI50 [9]?
A: 27.9 µM

Q: What about the TGI [9] of the same molecule?
A: > 100 µM

Q: What about the GI50 [10] of the same molecule?
A: 22.9 µM

Q: What about the TGI [10] of the same molecule?
A: > 100 µM

Q: And the GI50 [11]?
A: 13.7 µM

Q: And the TGI [11]?
A: > 100 µM

Q: What about the GI50 [12] of the same molecule?
A: 26.9 µM

Q: What about the TGI [12] of the same molecule?
A: > 100 µM

Q: And the GI50 [13]?
A: 10.1 µM

Q: And the TGI [13]?
A: > 100 µM

Q: What about the GI50 [14] of the same molecule?
A: 34.6 µM

Q: What about the TGI [14] of the same molecule?
A: > 100 µM

Q: What about the GI50 [15] of the same molecule?
A: 9.16 µM

Q: What about the TGI [15] of the same molecule?
A: > 100 µM

Q: And the GI50 [16]?
A: 86.2 µM

Q: And the TGI [16]?
A: > 100 µM

Q: And the GI50 [17]?
A: 65.1 µM

Q: And the TGI [17]?
A: > 100 µM

Q: What about the GI50 [18] of the same molecule?
A: 19.9 µM

Q: And the TGI [18]?
A: 97.5 µM

Q: What about the GI50 [19] of the same molecule?
A: 41.6 µM

Q: What about the TGI [19] of the same molecule?
A: > 100 µM

Q: And the GI50 [20]?
A: 35.5 µM

Q: What about the TGI [20] of the same molecule?
A: > 100 µM

Q: What about the GI50 [21] of the same molecule?
A: 10.4 µM

Q: And the TGI [21]?
A: > 100 µM

Q: What about the GI50 [22] of the same molecule?
A: 7.01 µM

Q: And the TGI [22]?
A: > 100 µM

Q: And the GI50 [23]?
A: 16.3 µM

Q: And the TGI [23]?
A: > 100 µM

Q: What about the GI50 [24] of the same molecule?
A: 12.5 µM

Q: What about the TGI [24] of the same molecule?
A: > 100 µM

Q: What about the GI50 [25] of the same molecule?
A: 11.1 µM

Q: What about the TGI [25] of the same molecule?
A: > 100 µM

Q: What about the GI50 [26] of the same molecule?
A: 10.1 µM

Q: What about the TGI [26] of the same molecule?
A: 32.8 µM

Q: What about the GI50 [27] of the same molecule?
A: 21.6 µM

Q: And the TGI [27]?
A: > 100 µM

Q: And the GI50 [28]?
A: 44.6 µM

Q: What about the TGI [28] of the same molecule?
A: > 100 µM

Q: And the GI50 [29]?
A: 34.9 µM

Q: And the TGI [29]?
A: > 100 µM

Q: And the GI50 [30]?
A: 45 µM

Q: What about the TGI [30] of the same molecule?
A: > 100 µM

Q: What about the GI50 [31] of the same molecule?
A: 12.4 µM

Q: And the TGI [31]?
A: 69.4 µM

Q: What about the GI50 [32] of the same molecule?
A: 17.5 µM

Q: What about the TGI [32] of the same molecule?
A: > 100 µM

Q: And the GI50 [33]?
A: 40.5 µM

Q: And the TGI [33]?
A: > 100 µM

Q: And the GI50 [34]?
A: 14.9 µM

Q: And the TGI [34]?
A: > 100 µM

Q: And the GI50 [35]?
A: 45.3 µM

Q: And the TGI [35]?
A: > 100 µM

Q: And the GI50 [36]?
A: 2.47 µM

Q: And the TGI [36]?
A: > 100 µM

Q: What about the GI50 [37] of the same molecule?
A: 19.9 µM

Q: What about the TGI [37] of the same molecule?
A: > 100 µM

Q: And the GI50 [38]?
A: 38.7 µM

Q: And the TGI [38]?
A: > 100 µM

Q: And the GI50 [39]?
A: 29.4 µM

Q: And the TGI [39]?
A: > 100 µM

Q: And the GI50 [40]?
A: 39.5 µM

Q: What about the TGI [40] of the same molecule?
A: > 100 µM

Q: And the GI50 [41]?
A: 7.94 µM

Q: What about the TGI [41] of the same molecule?
A: > 100 µM

Q: What about the GI50 [42] of the same molecule?
A: 25.9 µM

Q: What about the TGI [42] of the same molecule?
A: > 100 µM

Q: What about the GI50 [43] of the same molecule?
A: 5.28 µM

Q: And the TGI [43]?
A: > 100 µM

Q: And the GI50 [44]?
A: 34.5 µM

Q: And the TGI [44]?
A: > 100 µM

Q: And the GI50 [45]?
A: 13.6 µM

Q: And the TGI [45]?
A: > 100 µM

Q: And the GI50 [46]?
A: 71.8 µM

Q: What about the TGI [46] of the same molecule?
A: > 100 µM

Q: And the GI50 [47]?
A: 6.12 µM

Q: What about the TGI [47] of the same molecule?
A: 49.4 µM

Q: What about the GI50 [48] of the same molecule?
A: 23 µM

Q: What about the TGI [48] of the same molecule?
A: > 100 µM

Q: What about the GI50 [49] of the same molecule?
A: 28.6 µM

Q: What about the TGI [49] of the same molecule?
A: > 100 µM

Q: What about the GI50 [50] of the same molecule?
A: 18.7 µM

Q: What about the TGI [50] of the same molecule?
A: 82.4 µM

Q: And the GI50 [51]?
A: 12.7 µM

Q: What about the TGI [51] of the same molecule?
A: > 100 µM

Q: What about the GI50 [52] of the same molecule?
A: 58.1 µM

Q: And the TGI [52]?
A: > 100 µM

Q: And the GI50 [53]?
A: 26 µM

Q: And the TGI [53]?
A: > 100 µM

Q: What about the GI50 [54] of the same molecule?
A: 16.1 µM

Q: And the TGI [54]?
A: > 100 µM
